In US7700637B2, “Organic compounds” (Novartis AG, priority 2003, dated 2010):

Row | SMILES | melting point [°C]
1 | Cc1ccc(C(=O)O)c(NS(=O)(=O)c2ccc(OCc3nc(-c4ccccc4)oc3C)cc2)c1 [Compd 4-12, 4-Methyl-2-[4-(5-methyl-2-phenyl-oxazol-4-ylmethoxy)-benzenesulfonylamino]-benzoic acid] | 207 to 208
2 | CC(=O)Nc1ccc(NS(=O)(=O)c2ccc(OCc3nc(-c4ccccc4)oc3C)cc2)c(C(=O)O)c1 [Compd 4-18, 5-Acetylamino-2-[4-(5-methyl-2-phenyl-oxazol-4-ylmethoxy)-benzenesulfonylamino]-benzoic acid] | 89 to 90
3 | Cc1oc(-c2ccc(F)cc2)nc1COc1ccc(S(=O)(=O)Nc2cc(Cl)ccc2C(=O)O)cc1 [Compd 4-5, 4-Chloro-2-{4-[2-(4-fluoro-phenyl)-5-methyl-oxazol-4-ylmethoxy]-benzenesulfonylamino}-benzoic acid] | 223 to 225
4 | Cc1oc(-c2ccc(C(F)(F)F)cc2)nc1COc1ccc(S(=O)(=O)Nc2ccccc2C(=O)O)cc1 [Compd 4-8, 2-{4-[5-Methyl-2-(4-trifluoromethyl-phenyl)-oxazol-4-ylmethoxy]-benzenesulfonylamino}-benzoic acid] | 195
5 | Cc1cc(C)c(NS(=O)(=O)c2ccc(OCc3nc(-c4ccccc4)oc3C)cc2)c(C(=O)O)c1 [Compd 4-25, 3,5-Dimethyl-2-[4-(5-methyl-2-phenyl-oxazol-4-ylmethoxy)-benzenesulfonylamino]-benzoic acid] | 165 to 166
6 | Cc1ccc(NS(=O)(=O)c2ccc(OCc3nc(-c4ccccc4)oc3C)cc2)c(C(=O)O)c1 [Compd 4-17, 5-Methyl-2-[4-(5-methyl-2-phenyl-oxazol-4-ylmethoxy)-benzenesulfonylamino]-benzoic acid] | 185 to 187
7 | Cc1oc(-c2ccccc2)nc1CCOc1ccc(S(=O)(=O)Nc2ccccc2C(=O)O)cc1 [Compd 4-21, 2-{4-[2-(5-Methyl-2-phenyl-oxazol-4-yl)-ethoxy]-benzenesulfonylamino}-benzoic acid] | 136 to 138
8 | Cc1oc(-c2ccccc2)nc1CSc1ccc(S(=O)(=O)Nc2ccccc2C(=O)O)cc1 [Example 3, 2-[4-(5-Methyl-2-phenyl-oxazol-4-ylmethylsulfanyl)-benzenesulfonylamino]-benzoic acid] | 182 to 184
9 | Cc1oc(-c2ccccc2)nc1COc1ccc(S(=O)(=O)Nc2ccccc2C(=O)O)cc1 [Compd 4-11, 2-[4-(5-Methyl-2-phenyl-oxazol-4-ylmethoxy)-benzenesulfonylamino]-benzoic acid] | 195 to 198
10 | CCOc1ccc(CC(=O)Nc2ccc(S(=O)(=O)Nc3ccccc3C(=O)O)cc2)cc1 [Example 9, 2-{4-[2-(4-Ethoxy-phenyl)-acetylamino]-benzenesulfonylamino}-benzoic acid] | 241 to 242
11 | Cc1oc(-c2ccccc2)nc1COc1ccc(S(=O)(=O)Nc2cc3ccccc3cc2C(=O)O)cc1 [Compd 4-26, 3-[4-(5-Methyl-2-phenyl-oxazol-4-ylmethoxy)-benzenesulfonylamino]-naphthalene-2-carboxylic acid] | 234 to 236
12 | Cc1oc(-c2ccccc2)nc1CCOc1ccc(S(=O)(=O)Nc2cc(Cl)ccc2C(=O)O)cc1 [Example 2, 4-Chloro-2-{4-[2-(5-methyl-2-phenyl-oxazol-4-yl)-ethoxy]-benzenesulfonylamino}-benzoic acid] | 223 to 225

The remaining lines, values ahead:

Row | melting point [°C] | SMILES
13 | 197 to 198 | Cc1oc(-c2ccccc2)nc1COc1ccc(S(=O)(=O)Nc2cccc(C(F)(F)F)c2C(=O)O)cc1 [Compd 4-6, 2-[4-(5-Methyl-2-phenyl-oxazol-4-ylmethoxy)-benzenesulfonylamino]-6-trifluoromethyl-benzoic acid]
14 | 170 to 172 | Cc1oc(-c2ccccc2)nc1COc1ccc(S(=O)(=O)Nc2cccc(Cl)c2C(=O)O)cc1 [Compd 4-1, 6-Chloro-2-[4-(5-methyl-2-phenyl-oxazol-4-ylmethoxy)-benzenesulfonylamino]-benzoic acid]
15 | 148 to 149 | Cc1oc(-c2ccccc2)nc1CCOc1ccc(COc2cc(Cl)ccc2C(=O)O)cc1 [Compd 21-12, 4-Chloro-2-{4-[2-(5-methyl-2-phenyl-oxazol-4-yl)-ethoxy]-benzyloxy}benzoic acid]
16 | 157 to 158 | Cc1cc(OC(C)C)cc(OCc2ccc(OCCc3nc(-c4ccccc4)oc3C)cc2)c1C(=O)O [Compd 21-7, 4-Isopropoxy-2-methyl-6-{4-[2-(5-methyl-2-phenyl-oxazol-4-yl)-ethoxy]-benzyloxy}-benzoic acid]
17 | 203 to 205 | Cc1oc(-c2ccccc2)nc1COc1ccc(S(=O)(=O)Nc2cccc(F)c2C(=O)O)cc1 [Compd 4-4, 6-Fluoro-2-[4-(5-methyl-2-phenyl-oxazol-4-ylmethoxy)-benzenesulfonylamino]-benzoic acid]
18 | 155 to 156 | Cc1oc(-c2ccccc2)nc1COc1ccc(COc2cc(Cl)ccc2C(=O)O)cc1 [Compd 21-11, 4-Chloro-2-[4-(5-methyl-2-phenyl-oxazol-4-ylmethoxy)-benzyloxy]-benzoic acid]
19 | 167 to 168 | Cc1oc(-c2ccccc2)nc1COc1ccc(COc2cccc(F)c2C(=O)O)cc1 [Compd 21-6, 2-Fluoro-6-[4-(5-methyl-2-phenyl-oxazol-4-ylmethoxy)-benzyloxy]-benzoic acid]
20 | 190 to 191 | Cc1oc(-c2ccccc2)nc1COc1ccc(COc2cc(C(F)(F)F)cc(C(F)(F)F)c2C(=O)O)cc1 [Compd 21-5, 2-[4-(5-Methyl-2-phenyl-oxazol-4-ylmethoxy)-benzyloxy]-4,6-bis-trifluoromethyl-benzoic acid]
21 | 108 to 109 | CCCOc1ccc(C(=O)O)c(OCc2ccc(OCCc3nc(-c4ccccc4)oc3C)cc2)c1 [Example 15, 2-{4-[2-(5-Methyl-2-phenyl-oxazol-4-yl)-ethoxy]-benzyloxy}-4-propoxy-benzoic acid]
22 | 180 to 181 | COc1cccc(OCc2ccc(OCc3nc(-c4ccccc4)oc3C)cc2)c1C(=O)O [Compd 21-9, 2-Methoxy-6-[4-(5-methyl-2-phenyl-oxazol-4-ylmethoxy)-benzyloxy]-benzoic acid]
23 | 151 | Cc1oc(-c2ccccc2)nc1COCc1ccc(COc2cc(Cl)ccc2C(=O)O)cc1 [Compd 21-19, 4-Chloro-2-[4-(5-methyl-2-phenyl-oxazol-4-ylmethoxymethyl)-benzyloxy]-benzoic acid]
24 | 137 | Cc1oc(-c2ccccc2)nc1COCc1cccc(COc2cc(Cl)ccc2C(=O)O)c1 [Example 18, 4-Chloro-2-[3-(5-methyl-2-phenyl-oxazol-4-ylmethoxymethyl)-benzyloxy]-benzoic acid]
25 | 212 to 214 | Cc1oc(-c2ccccc2)nc1COc1ccc(S(=O)(=O)Nc2cc(F)ccc2C(=O)O)cc1 [Compd 4-10, 4-Fluoro-2-[4-(5-methyl-2-phenyl-oxazol-4-ylmethoxy)-benzenesulfonylamino]-benzoic acid]
26 | 182 to 183 | COc1cc(OC)c(C(=O)O)c(OCc2ccc(OCc3nc(-c4ccccc4)oc3C)cc2)c1 [Compd 21-2, 2,4-Dimethoxy-6-[4-(5-methyl-2-phenyl-oxazol-4-ylmethoxy)-benzyloxy]-benzoic acid]
